Measured values taken from patent publication US20060100105A1, “Agents containing carboxylic acid and the use of the same in plant cultivation” (priority 2002, published 2006).

Test system: Winter oilseed rape (cv. Pronto)
Assay: Shoot elongation in winter oilseed rape
Type: in vivo
Settings: active ingredient alone
Protocol: The tank mixers employed in Example 1 are prepared by mixing an emulsion concentrate with a metconazole content of 90 g/l and an aqueous concentrate with mepiquat chloride content of 600 g/l using a magnetic stirrer (experiment T1).
Winter oilseed rape (cv. Pronto) was sown in autumn and approximately one month later treated as specified in Table 3. Shoot elongation and root development were assessed a few weeks later. The elongation results are compiled in Table 3.

| Compound | shortening effect (in words) |
| --- | --- |
| C[N+]1(C)CCCCC1.[Cl-] [mepiquat-chloride, N,N-dimethylpiperidinium chloride] | only results in some degree of shortening at scoring date 2 |
| CC1(C)CCC(Cc2ccc(Cl)cc2)C1(O)Cn1cncn1 (centres unmarked) [Metconazole, metconazole] | very pronounced |
